Assay [1] addresses T1, MNK-1 (Homo sapiens, UniProt Q9BUB5).
T1 construct: purchased Caliper Life Sciences
As to the kind of experiment: Other kinases, inhibition at 1 μM (Table 3). Format: biochemical. The procedure:
(§1) The Aurora and other kinase assays described here were performed on two Caliper Life Sciences systems, the LC3000 and the Desktop Profiler. These provide data on enzyme activity via measurement of the relative amounts of phosphorylated or unphosphorylated fluorescently labelled substrate peptide at the end of an enzymatic reaction. These different states of peptide are resolved by applying a potential difference across the sample. The presence of a charged phosphate group on the product (as opposed to the substrate) causes a different peptide mobility between the two peptides. This is visualized by excitation of a fluorescent label on the substrate and product peptides and represented as peaks within the analysis software.
(§2) The Desktop Profiler utilizes the same principal as the LC 3000 for calculating percentage conversion of a substrate to product. Caliper Life Sciences provided proprietary flash frozen pre-made 384 well plates containing selected kinases. Each column in the 384 well plate contained a particular selected kinase. A second plate, the ‘substrate plate’ contained a mix of fluorescently labeled peptide substrate and ATP. These were arranged in columns so that transfer for substrate plate to enzyme plate provided the correct enzyme with the correct substrate/ATP concentration.
(§3) Compounds were added to a thawed enzyme plate in the desired format, in single concentrations. Reactions were initiated by transfer of the ubstrate/ATP mix from the substrate plate. The enzyme plate was incubated for 90 mins at 25 °C. The reaction was stopped by addition of […] of Stop Buffer (100 mM HEPES pH 7.5, 0.015% Brij-35, 10 mM EDTA (Sigma, E7889)).
(§4) Plates were read in a manner identical to that of the LC3000, and the ratio between substrate and product peaks provided the activity of the enzyme in that well. This was best represented by a plate heat map which colors each well by percent inhibition as compared to positive and negative controls (no inhibitors and no ATP respectively).

For assay [2], the target named is T2, IKK-beta (Homo sapiens, UniProt O14920).
T2 construct: purchased Caliper Life Sciences
As to the kind of experiment: Other kinases, inhibition at 1 μM (Table 3). Format: biochemical. The procedure: as §1, §2, §3, §4

The target in assay [3] is T3, ROCK-II (Homo sapiens, UniProt O75116).
T3 construct: purchased Caliper Life Sciences
As to the kind of experiment: Other kinases, inhibition at 1 μM (Table 3). Format: biochemical. As to the method: as §1, §2, §3, §4

Assay [4] addresses T4, MKK1 (Homo sapiens, UniProt Q02750).
T4 construct: purchased Caliper Life Sciences
As to the kind of experiment: Other kinases, inhibition at 1 μM (Table 3). Format: biochemical. The procedure: as §1, §2, §3, §4

For assay [5], the target named is T5, IKK-epsilon (Homo sapiens, UniProt Q14164).
T5 construct: purchased Caliper Life Sciences
As to the kind of experiment: Other kinases, inhibition at 1 μM (Table 3). Format: biochemical. The procedure: as §1, §2, §3, §4

The target in assay [6] is T6, MST2 (Homo sapiens, UniProt Q13188).
T6 construct: purchased Caliper Life Sciences
As to the kind of experiment: Other kinases, inhibition at 1 μM (Table 3). Format: biochemical. The procedure: as §1, §2, §3, §4

The target of assay [7] is T7, FGFR1 (Homo sapiens, UniProt P11362).
T7 construct: purchased Caliper Life Sciences
As to the kind of experiment: Other kinases, inhibition at 1 μM (Table 3). Format: biochemical. As to the method:
as §1, §2, §3, §4

The target of assay [8] is T8, PKC-alpha (Homo sapiens, UniProt P17252).
T8 construct: purchased Caliper Life Sciences
As to the kind of experiment: Other kinases, inhibition at 1 μM (Table 3). Format: biochemical. The procedure: as §1, §2, §3, §4

Assay [9] has as its system MAPK8. As to the kind of experiment: Other kinases, inhibition at 1 μM (Table 3). Format: biochemical. The procedure: as §1, §2, §3, §4
Assay [10] has as its target T9, MAPK2 (Homo sapiens, UniProt P28482).
T9 construct: purchased Caliper Life Sciences
As to the kind of experiment: Other kinases, inhibition at 1 μM (Table 3). Format: biochemical. As to the method:
as §1, §2, §3, §4

Assay [11] addresses T10, CAMKI (Homo sapiens, UniProt Q14012).
T10 construct: purchased Caliper Life Sciences
As to the kind of experiment: Other kinases, inhibition at 1 μM (Table 3). Format: biochemical. The procedure: as §1, §2, §3, §4

The target of assay [12] is T11, YES1 (Homo sapiens, UniProt P07947).
T11 construct: purchased Caliper Life Sciences
As to the kind of experiment: Other kinases, inhibition at 1 μM (Table 3). Format: biochemical. As to the method:
as §1, §2, §3, §4

The target in assay [13] is T12, Syk (Homo sapiens, UniProt P43405).
T12 construct: purchased Caliper Life Sciences
As to the kind of experiment: Other kinases, inhibition at 1 μM (Table 3). Format: biochemical. As to the method: as §1, §2, §3, §4

The target of assay [14] is T13, MELK (Homo sapiens, UniProt Q14680).
T13 construct: purchased Caliper Life Sciences
As to the kind of experiment: Other kinases, inhibition at 1 μM (Table 3). Format: biochemical. The procedure: as §1, §2, §3, §4

The target in assay [15] is T14, MAPKAP-K1-alpha (Homo sapiens, UniProt Q15418).
T14 construct: purchased Caliper Life Sciences
As to the kind of experiment: Other kinases, inhibition at 1 μM (Table 3). Format: biochemical. The procedure: as §1, §2, §3, §4

Assay [16] addresses T15, TBK1 (Homo sapiens, UniProt Q9UHD2).
T15 construct: purchased Caliper Life Sciences
As to the kind of experiment: Other kinases, inhibition at 1 μM (Table 3). Format: biochemical. As to the method: as §1, §2, §3, §4

In assay [17] the target is T16, MAPKAP-K1-beta (Homo sapiens, UniProt P51812).
T16 construct: purchased Caliper Life Sciences
As to the kind of experiment: Other kinases, inhibition at 1 μM (Table 3). Format: biochemical. The procedure: as §1, §2, §3, §4

The target in assay [18] is T17, SRC (Homo sapiens, UniProt P12931).
T17 construct: purchased Caliper Life Sciences
As to the kind of experiment: Other kinases, inhibition at 1 μM (Table 3). Format: biochemical. As to the method:
as §1, §2, §3, §4

Assay [19] relates to AMPK(r). As to the kind of experiment: Other kinases, single-concentration inhibition (Table 3). Format: biochemical, rat. The procedure: as §1, §2, §3, §4
Assay [20] has as its target T18, FAK(h) (Homo sapiens, UniProt Q05397).
T18 construct: purchased Caliper Life Sciences
The assay is described as above. Format: biochemical. Put shortly: (§5)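 Mobility-shift readout (Caliper Desktop Profiler): substrate and phosphopeptide resolved electrophoretically from fluorescent label. Compounds tested at a single concentration, 90 min at 25 °C with labelled peptide and ATP. Percent inhibition relative to no-inhibitor and no-ATP wells.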

The target in assay [21] is T19, Flt3(D835Y)(h) (Homo sapiens, UniProt P36888, D835Y).
T19 construct: purchased Caliper Life Sciences
T19 sequence (P36888 27-993 D835Y): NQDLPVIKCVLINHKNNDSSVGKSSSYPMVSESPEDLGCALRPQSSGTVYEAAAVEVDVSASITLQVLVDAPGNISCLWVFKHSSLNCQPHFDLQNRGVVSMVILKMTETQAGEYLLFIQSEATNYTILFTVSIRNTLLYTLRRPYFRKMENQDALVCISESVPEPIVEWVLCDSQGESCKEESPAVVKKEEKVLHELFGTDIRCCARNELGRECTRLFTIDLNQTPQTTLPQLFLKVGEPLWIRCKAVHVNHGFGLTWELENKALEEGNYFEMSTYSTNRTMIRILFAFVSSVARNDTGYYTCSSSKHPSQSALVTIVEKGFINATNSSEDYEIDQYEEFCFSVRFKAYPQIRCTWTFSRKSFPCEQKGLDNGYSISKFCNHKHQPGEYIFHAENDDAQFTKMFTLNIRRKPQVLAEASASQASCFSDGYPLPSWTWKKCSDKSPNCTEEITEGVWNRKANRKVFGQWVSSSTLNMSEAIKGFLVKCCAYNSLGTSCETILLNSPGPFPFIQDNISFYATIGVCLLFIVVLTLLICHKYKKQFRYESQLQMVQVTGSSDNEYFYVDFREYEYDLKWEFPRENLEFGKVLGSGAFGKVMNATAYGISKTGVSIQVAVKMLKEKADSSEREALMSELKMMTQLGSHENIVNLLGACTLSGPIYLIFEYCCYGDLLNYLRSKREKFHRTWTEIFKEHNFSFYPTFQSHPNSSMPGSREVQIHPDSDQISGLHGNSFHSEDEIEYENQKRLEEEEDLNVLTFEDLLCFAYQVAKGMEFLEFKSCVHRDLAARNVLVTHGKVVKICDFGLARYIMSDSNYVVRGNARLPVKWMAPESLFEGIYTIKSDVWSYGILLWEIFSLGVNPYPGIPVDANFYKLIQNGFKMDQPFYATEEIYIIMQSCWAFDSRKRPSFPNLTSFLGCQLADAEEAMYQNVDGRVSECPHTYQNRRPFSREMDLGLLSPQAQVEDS
Described as above. Format: biochemical. Put shortly: as §5

T18 sequence (Q05397 whole entry): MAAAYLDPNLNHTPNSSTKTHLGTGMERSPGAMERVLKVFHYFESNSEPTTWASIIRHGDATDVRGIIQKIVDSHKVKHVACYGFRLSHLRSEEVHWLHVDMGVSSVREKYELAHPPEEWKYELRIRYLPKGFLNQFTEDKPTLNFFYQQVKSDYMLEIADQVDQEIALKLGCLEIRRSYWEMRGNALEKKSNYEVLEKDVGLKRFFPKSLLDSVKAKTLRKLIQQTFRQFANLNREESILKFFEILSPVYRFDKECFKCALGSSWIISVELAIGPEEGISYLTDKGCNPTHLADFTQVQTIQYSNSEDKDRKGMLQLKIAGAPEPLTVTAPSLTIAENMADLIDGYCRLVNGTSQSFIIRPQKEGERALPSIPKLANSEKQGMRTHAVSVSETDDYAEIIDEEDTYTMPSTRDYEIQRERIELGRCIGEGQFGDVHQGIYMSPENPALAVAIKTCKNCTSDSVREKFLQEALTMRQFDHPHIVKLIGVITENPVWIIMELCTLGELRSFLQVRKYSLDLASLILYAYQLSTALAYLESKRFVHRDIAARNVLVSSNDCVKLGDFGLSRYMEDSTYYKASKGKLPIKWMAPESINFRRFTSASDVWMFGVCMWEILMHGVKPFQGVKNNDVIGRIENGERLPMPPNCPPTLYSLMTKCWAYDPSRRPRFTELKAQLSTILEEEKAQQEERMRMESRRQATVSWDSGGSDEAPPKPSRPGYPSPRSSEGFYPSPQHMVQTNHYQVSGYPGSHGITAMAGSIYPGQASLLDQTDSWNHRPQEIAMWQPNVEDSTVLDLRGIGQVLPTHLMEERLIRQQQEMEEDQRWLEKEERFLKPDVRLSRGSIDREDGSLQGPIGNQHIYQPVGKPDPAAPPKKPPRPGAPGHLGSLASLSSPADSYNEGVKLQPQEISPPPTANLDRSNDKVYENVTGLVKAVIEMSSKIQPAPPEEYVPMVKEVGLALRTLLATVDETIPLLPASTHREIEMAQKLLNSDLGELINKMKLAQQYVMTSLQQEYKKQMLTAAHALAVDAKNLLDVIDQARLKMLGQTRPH
T6 sequence (Q13188 whole entry, species assumed): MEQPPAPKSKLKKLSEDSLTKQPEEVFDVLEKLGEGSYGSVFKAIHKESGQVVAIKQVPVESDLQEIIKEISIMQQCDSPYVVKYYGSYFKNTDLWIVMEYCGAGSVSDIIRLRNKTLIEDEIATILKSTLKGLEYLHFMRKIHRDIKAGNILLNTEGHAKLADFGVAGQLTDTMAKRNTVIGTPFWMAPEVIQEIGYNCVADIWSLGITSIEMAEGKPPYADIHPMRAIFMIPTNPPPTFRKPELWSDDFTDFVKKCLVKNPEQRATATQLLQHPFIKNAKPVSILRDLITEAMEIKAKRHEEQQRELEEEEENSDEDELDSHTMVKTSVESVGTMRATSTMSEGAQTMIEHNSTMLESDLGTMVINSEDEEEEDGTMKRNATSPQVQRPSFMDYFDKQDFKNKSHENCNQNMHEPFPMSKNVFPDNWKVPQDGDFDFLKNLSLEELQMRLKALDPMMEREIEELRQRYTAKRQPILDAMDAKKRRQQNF
T2 sequence (O14920 whole entry, species assumed): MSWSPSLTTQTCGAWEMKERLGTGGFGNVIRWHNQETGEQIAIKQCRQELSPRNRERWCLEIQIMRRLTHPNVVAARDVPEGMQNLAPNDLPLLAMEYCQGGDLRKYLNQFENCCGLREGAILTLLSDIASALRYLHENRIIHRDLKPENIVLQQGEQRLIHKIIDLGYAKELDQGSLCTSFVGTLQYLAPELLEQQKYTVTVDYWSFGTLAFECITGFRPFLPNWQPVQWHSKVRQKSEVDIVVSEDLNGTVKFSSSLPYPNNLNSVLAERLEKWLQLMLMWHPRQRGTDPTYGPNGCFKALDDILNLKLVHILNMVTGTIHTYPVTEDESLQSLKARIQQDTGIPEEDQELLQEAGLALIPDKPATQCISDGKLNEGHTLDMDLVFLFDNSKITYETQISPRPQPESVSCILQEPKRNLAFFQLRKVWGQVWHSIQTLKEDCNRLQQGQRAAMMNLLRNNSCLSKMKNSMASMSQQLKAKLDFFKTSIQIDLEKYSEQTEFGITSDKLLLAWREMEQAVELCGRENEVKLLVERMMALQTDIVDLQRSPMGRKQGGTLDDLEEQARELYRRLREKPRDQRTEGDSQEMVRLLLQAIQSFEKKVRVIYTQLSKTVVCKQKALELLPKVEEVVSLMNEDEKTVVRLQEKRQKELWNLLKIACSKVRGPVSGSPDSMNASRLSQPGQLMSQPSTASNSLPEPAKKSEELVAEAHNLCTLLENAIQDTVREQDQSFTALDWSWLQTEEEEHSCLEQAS
T11 sequence (P07947 whole entry, species assumed): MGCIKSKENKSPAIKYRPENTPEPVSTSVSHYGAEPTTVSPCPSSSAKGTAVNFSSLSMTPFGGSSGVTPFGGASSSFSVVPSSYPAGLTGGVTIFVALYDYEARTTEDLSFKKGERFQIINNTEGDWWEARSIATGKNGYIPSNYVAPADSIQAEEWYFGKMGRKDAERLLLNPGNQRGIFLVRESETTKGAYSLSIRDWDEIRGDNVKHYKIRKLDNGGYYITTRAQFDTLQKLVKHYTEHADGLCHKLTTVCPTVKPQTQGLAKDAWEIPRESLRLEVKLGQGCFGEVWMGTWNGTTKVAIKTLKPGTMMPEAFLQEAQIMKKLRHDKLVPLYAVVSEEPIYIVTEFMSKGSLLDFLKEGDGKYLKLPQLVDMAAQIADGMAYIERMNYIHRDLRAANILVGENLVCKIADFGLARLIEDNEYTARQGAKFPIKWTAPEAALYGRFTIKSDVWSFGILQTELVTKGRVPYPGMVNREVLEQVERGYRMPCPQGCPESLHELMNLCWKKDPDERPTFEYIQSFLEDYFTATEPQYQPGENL
T16 sequence (P51812 whole entry): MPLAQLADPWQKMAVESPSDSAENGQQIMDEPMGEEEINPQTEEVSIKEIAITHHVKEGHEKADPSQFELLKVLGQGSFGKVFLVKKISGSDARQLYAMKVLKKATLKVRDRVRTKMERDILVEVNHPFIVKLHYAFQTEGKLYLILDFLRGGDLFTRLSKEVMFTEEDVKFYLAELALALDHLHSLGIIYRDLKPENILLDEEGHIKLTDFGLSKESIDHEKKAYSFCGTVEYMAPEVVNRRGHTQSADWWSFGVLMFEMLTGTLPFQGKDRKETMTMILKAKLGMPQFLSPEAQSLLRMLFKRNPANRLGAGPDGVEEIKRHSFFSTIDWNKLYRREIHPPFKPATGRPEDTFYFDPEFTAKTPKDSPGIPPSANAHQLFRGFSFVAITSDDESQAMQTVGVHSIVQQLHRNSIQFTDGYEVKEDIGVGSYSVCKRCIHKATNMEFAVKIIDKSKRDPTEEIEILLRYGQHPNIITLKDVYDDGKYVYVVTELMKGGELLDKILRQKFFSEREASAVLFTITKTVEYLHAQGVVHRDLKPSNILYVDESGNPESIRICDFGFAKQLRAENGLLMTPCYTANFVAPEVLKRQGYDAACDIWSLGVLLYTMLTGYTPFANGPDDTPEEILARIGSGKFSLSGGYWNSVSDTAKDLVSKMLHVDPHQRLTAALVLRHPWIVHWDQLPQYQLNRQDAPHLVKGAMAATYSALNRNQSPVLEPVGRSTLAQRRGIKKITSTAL
T17 sequence (P12931 whole entry, species assumed): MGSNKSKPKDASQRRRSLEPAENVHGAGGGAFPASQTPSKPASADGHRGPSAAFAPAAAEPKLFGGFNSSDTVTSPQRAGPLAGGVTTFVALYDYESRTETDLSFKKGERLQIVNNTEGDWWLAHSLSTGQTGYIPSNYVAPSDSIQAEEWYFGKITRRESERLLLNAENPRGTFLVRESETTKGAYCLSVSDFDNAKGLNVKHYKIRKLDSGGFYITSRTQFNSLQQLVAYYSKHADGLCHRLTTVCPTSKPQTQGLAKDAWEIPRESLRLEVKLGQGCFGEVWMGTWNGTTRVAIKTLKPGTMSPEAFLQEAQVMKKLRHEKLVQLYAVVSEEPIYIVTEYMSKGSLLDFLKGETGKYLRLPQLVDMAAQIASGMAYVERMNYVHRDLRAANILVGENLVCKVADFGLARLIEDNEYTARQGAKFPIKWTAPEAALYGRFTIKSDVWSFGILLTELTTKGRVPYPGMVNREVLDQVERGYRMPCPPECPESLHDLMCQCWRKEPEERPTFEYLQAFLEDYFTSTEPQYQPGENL
T14 sequence (Q15418 whole entry): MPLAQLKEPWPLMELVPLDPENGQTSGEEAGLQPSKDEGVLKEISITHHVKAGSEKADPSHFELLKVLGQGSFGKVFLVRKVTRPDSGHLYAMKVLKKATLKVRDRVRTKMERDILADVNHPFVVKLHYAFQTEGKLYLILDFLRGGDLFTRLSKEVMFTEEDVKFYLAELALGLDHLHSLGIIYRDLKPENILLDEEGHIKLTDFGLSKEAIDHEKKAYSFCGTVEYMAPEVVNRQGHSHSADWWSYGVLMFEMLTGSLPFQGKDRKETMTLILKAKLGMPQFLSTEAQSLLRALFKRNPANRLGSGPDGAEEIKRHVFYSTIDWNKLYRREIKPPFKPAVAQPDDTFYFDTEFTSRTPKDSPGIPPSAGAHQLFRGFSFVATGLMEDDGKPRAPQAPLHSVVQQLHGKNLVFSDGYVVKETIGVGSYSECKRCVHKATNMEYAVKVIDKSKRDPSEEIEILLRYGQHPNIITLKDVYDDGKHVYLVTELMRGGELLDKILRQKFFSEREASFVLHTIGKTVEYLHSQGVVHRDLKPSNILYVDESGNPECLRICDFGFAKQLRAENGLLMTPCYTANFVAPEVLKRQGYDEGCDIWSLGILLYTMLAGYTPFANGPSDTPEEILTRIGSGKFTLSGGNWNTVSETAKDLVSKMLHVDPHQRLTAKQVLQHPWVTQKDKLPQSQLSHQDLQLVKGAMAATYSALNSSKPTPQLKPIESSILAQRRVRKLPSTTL

Take `NC(=O)[C@H]1[C@H]2C[C@H]3[C@H]1Nc1nc(ncc1F)Nc1cccc(c1)CSS[C@@H]3C2` [Example 10]: the “% inhibition MNK-1” value in [1] was determined as 98%. Further, the inhibition at 1 µM in assay [2] came out at 82%; in assay [3] it was 75%; in assay [5] it was 75%; in assay [7], 10%; in assay [12] it was 9%; in assay [13], 52%. In addition, the inhibition at 1 µM in [16] was found to be 100%; in assay [18], 14%. Moreover, the “% inhibition MKK1” value in [4] is listed as 13%. Besides, in [6], the “% inhibition MST2” value is listed as 8%. Moreover, the “% inhibition PKC-alpha” value in assay [8] came out at 56%. Also, in assay [9], the “% inhibition MAPK8” value is reported as 9%. For the same compound, the “% inhibition MAPK2” value in assay [10] was determined as 90%. The “% inhibition CAMKI” value in assay [11] was found to be 73%. Moreover, in assay [14], the “% inhibition MELK” value came out at 36%. The “% inhibition MAPKAP-K1-alpha” value in assay [15] stood at 12%. Also, the “% inhibition MAPKAP-K1-beta” value in [17] is on record as 19%. Besides, in assay [19] (1 μM), the “% inhibition AMPK(r)” value was determined as 86%. Besides, the “% inhibition FAK(h)” value in assay [20] (1 μM) is 3%. In addition, the “% inhibition Flt3(D835Y)(h)” value in assay [21] (1 μM) came out at 7%.

As for `CN1CCN(c2ccc3cc2NC(=O)CS[C@@H]2C[C@@H]4C[C@H]2[C@@H](Nc2nc(ncc2F)N3)[C@H]4C(N)=O)CC1` [Example 24], in [19] (1 μM), the “% inhibition AMPK(r)” value turned out to be 68%. In addition, the “% inhibition FAK(h)” value in [20] (1 μM) was 30%. In addition, the “% inhibition Flt3(D835Y)(h)” value in [21] (1 μM) was 3%.

With `NC(=O)[C@H]1[C@H]2C[C@H]3[C@H]1Nc1nc(ncc1F)Nc1cccc(c1)C(=O)CS[C@@H]3C2` [Example 11], in [19] (1 μM), the “% inhibition AMPK(r)” value came to 97%. Also, in assay [20] (1 μM), the “% inhibition FAK(h)” value came out at 77%. The “% inhibition Flt3(D835Y)(h)” value in [21] (1 μM) is recorded as 110%.

Regarding `NC(=O)[C@H]1[C@H]2C[C@H]3[C@H]1Nc1nc(ncc1F)Nc1cccc(c1)OCCS[C@@H]3C2` [Example 20], in assay [19] (1 μM), the “% inhibition AMPK(r)” value amounted to 81%. Besides, the “% inhibition FAK(h)” value in assay [20] (1 μM) came out at 11%. In addition, the “% inhibition Flt3(D835Y)(h)” value in assay [21] (1 μM) was 8%.

As to `CC[C@@H]1C[C@@H]2CCCOc3cccc(c3)Nc3ncc(F)c(n3)N[C@H]2[C@H]1C(N)=O` (single isomer, unassigned) [Example 5], in assay [19] (1 μM), the “% inhibition AMPK(r)” value came out at 58%. For the same compound, the “% inhibition FAK(h)” value in assay [20] (1 μM) stood at 91%. In assay [21] (1 μM), the “% inhibition Flt3(D835Y)(h)” value came to 63%.

With `O=C(O)[C@H]1[C@H]2C[C@H]3[C@H]1Nc1nc(ncc1F)Nc1cccc(c1)OCCS[C@@H]3C2` [Example 21], in [19] (10 μM), the “% inhibition AMPK(r)” value came out at 57%. Moreover, the “% inhibition FAK(h)” value in assay [20] (10 μM) is on record as 7%. The “% inhibition Flt3(D835Y)(h)” value in assay [21] (10 μM) is reported as 2%.

A word on the inhibition: it is the change of the read-out against control, counted positive when it falls. The low end stands for a weak effect, the high end for a strong effect.

For the origin of these results see US8815872B2, “Macrocyclics pyrimidines as aurora kinase inhibitors” (Merck Patent GmbH, priority 2008, dated 2014).
